Data reported in US11034681B2, “Crystal form of indole derivative and preparation method and use thereof” (CHIA TAI TIANQING PHARMACEUTICAL GROUP CO., LTD., priority 2018, dated 2021).
pIC50: −log10 of the molar value.

Experiments:
CRTH2 receptor [1] = molecular target: T1, CRTH2 receptor (Homo sapiens, UniProt Q9Y5Y4); assay: PathHunter CHO-K1 CRTH2 β-arrestin antagonist assay; type: cell-based; conditions: PathHunter CHO-K1 CRTH2 β-arrestin cells, PGD2 agonist at EC80
T1 sequence (Q9Y5Y4 1-395): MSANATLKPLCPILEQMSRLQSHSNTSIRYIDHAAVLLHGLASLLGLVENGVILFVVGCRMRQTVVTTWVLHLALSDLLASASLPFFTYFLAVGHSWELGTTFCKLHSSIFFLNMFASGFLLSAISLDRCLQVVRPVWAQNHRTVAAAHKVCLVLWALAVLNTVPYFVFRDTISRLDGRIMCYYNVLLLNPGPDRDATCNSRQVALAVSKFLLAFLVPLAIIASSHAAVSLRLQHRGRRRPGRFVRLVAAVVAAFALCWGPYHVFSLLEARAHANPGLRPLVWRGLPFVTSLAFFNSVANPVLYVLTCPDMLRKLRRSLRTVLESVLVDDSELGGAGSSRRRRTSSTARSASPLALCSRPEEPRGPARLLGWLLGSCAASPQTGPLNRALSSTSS
Procedure: PathHunter® CHO-K1 CRTH2 β-arrestin cells (DiscoverX, catalogue number 93-0291C2) grew under standard conditions, and were inoculated into a white-wall 384-well microplate at a density of 5,000 cells/well. 20 μL of Cell Plating Reagent 1 was used in each well. Before the test, the cells were incubated overnight at 37° C./5% CO2. A test compound was serially diluted in DMSO with a dilution factor of 3-fold to give 8 concentrations of the test compound. Shortly before the test, the serially diluted test compound was further diluted with the test buffer to 5 times of the test concentration. 5 μL of the further diluted test compound was added to the cells, and the cells were incubated for 30 min at 37° C. The concentration of the solvent was 1%. 5 μL of 6×EC80 agonist (PGD2) buffer was added to the cells, and the cells were incubated for 90 min at 37° C. Measured signals were generated by one-time addition of 15 μL (50% v/v) of PathHunter detection mixture reagent and subsequent one-hour incubation. The microplate was read through the chemiluminescent signals of PerkinElmer Envision™ reader. Biological activity of the test compound was analyzed by CBIS data analysis suite (ChemInnovation, CA), and was denoted as IC50 value.

[2] = Stability test of crystal form A (impurity content); type: physicochemical
Excerpt: (§1) Samples placed under high temperature and high humidity conditions were sealed with aluminum foil, and small holes were made in the foil to ensure that the samples can fully contact with ambient air. Samples placed under strong light conditions were sealed with screw caps.

[3] = test system: mice model of chronic/acute asthma induced by ovalbumin (OVA) and aluminum hydroxide (Al(OH)3); assay: Mice model of chronic/acute asthma induced by OVA and Al(OH)3; type: in vivo
[4] = Solid stability test of crystal form A (crystal form); type: physicochemical
Excerpt: as §1

[5] = Plasma pharmacokinetic assay in mice; type: in vivo; conditions: mouse, female C57 BL/6 mice
Procedure: Twelve female C57 BL/6 mice were used in plasma pharmacokinetic assay, randomly divided into two groups, with 6 animals in each group. Animals in the first group were administered intravenously 1 mg/kg of the test drug, and animals in the second group were administered intragastrically 5 mg/kg of the test drug. A formula comprising HPbCD and cosolvent (Solutol®) was used as formulation vehicle, and the obtained intravenous or intragastric formulations were all clear solutions. For animals in the intravenous group and the intragastric group, blood was collected from the saphenous vein at 0.0833, 0.25, 0.5, 1, 2, 4, 8, and 24 hours after administration, with 3 samples at each time point. Plasma samples collected from the intragastric administration group were frozen at −80° C. and thawed before LC-MS/MS sample analysis. The thawed plasma samples were subjected to protein precipitation by adding acetonitrile containing an internal standard in a certain ratio, and centrifuged to obtain a supernatant for LC-MS/MS injection. AP14000 or 5500 was used as the analytical instrument, ACQUITY UPLC BEH C18 (2.1×50 mm, 1.7 μm) was used as the chromatographic column, and the ionization of the test compound was performed by an ESI positive or negative ion source. There were 8 concentrations of the standard sample in each analysis batch, the ratio of the peak area of the test compound to the peak area of the internal standard (IS) was noted as Y, the concentration of the test compound in the plasma sample was noted as X, 1/x^2 was taken as the weighting coefficient to carry on the linear regression, and the regression equation of response and concentration was obtained. There were also corresponding quality control samples in each analysis batch. Phoenix 6.3 WinNonlin® was used for data processing to give corresponding PK parameters.

CRTH2 receptor [6] = molecular target: T1, CRTH2 receptor; conditions: background statement; cited from earlier work

Cc1c(Cc2ccc3c(c2)C(F)(F)CCS3(=O)=O)c2cc(F)ccc2n1CC(=O)O [Compound 1]
pIC50 (CRTH2 receptor [1]): > 7.00

Cc1c(Cc2ccc3c(c2)C(F)(F)CCS3(=O)=O)c2cc(F)ccc2n1CC(=O)O [Crystal Form A of Compound 1]
Impurity Content ([2]; 0 Day (Table 5)): 0.07% | Impurity Content ([2]; 25° C/60% RH, 3 months): 0.09% | Impurity Content ([2]; 25° C/60% RH, 6 months): 0.13% | Impurity Content ([2]; 30° C/65% RH, 3 months): 0.09% | Impurity Content ([2]; 30° C/65% RH, 6 months): 0.15% | Impurity Content ([2]; 40° C/75% RH, 0 Day (Table 6)): 0.07% | Impurity Content ([2]; 40° C/75% RH, 1 month): 0.17% | Impurity Content ([2]; 40° C/75% RH, 2 months): 0.13% | number of eosinophils [3]: significantly reduce the number of eosinophils | Crystal Form ([4]; 40° C, Reletive Humidity 75%, Exposure, day 10): Crystal Form A | Crystal Form ([4]; 40° C, Reletive Humidity 75%, Exposure, day 30): Crystal Form A | Crystal Form ([4]; 40° C, Reletive Humidity 75%, Exposure, day 60): Crystal Form A | Crystal Form ([4]; 40° C, Reletive Humidity 75%, Exposure, day 90): Crystal Form A | Crystal Form ([4]; 60° C, Reletive Humidity 75%, Exposure, day 10): Crystal Form A | Crystal Form ([4]; 60° C, Reletive Humidity 75%, Exposure, day 30): Crystal Form A | Crystal Form ([4]; 60° C, Reletive Humidity 75%, Exposure, day 60): Crystal Form A | Crystal Form ([4]; 60° C, Reletive Humidity 75%, Exposure, day 90): Crystal Form A | Crystal Form ([4]; High Humidity (Room temperature/Reletive Humidity 92.5%, Exposure), day 5): Crystal Form A | Crystal Form ([4]; High Humidity (Room temperature/Reletive Humidity 92.5%, Exposure), day 10): Crystal Form A | Crystal Form ([4]; High Temperature (60° C., Exposure), day 5): Crystal Form A | Crystal Form ([4]; High Temperature (60° C., Exposure), day 10): Crystal Form A | Crystal Form ([4]; Strong Light (5000 lx, Sealed), day 5): Crystal Form A | Crystal Form ([4]; Strong Light (5000 lx, Sealed), day 10): Crystal Form A | Crystal Form ([4]; day 0): Crystal Form A | clearance ([5]; intravenous 1 mg/kg, read-out: Clearance Rate of Intravenous Administration (Cl, mL/min/kg)): 4.55 mL/min/kg | half-life ([5]; po, intragastric 5 mg/kg, read-out: Half-life of Intragastric Administration (T1/2, hr) (converted)): 3.19 h | Cmax ([5]; po, intragastric 5 mg/kg, read-out: Maximum Blood Concentration of Intragastric Administration (Cmax)): 6.77 µM | AUC ([5]; po, intragastric 5 mg/kg, read-out: Plasma Exposure of Intragastric Administration (AUC, nM*hr)): 26000 nM·h

O=C(O)CCn1c2c(c3ccccc31)C[C@H](NS(=O)(=O)c1ccc(F)cc1)CC2 [Ramatroban]
CRTH2 receptor antagonism (CRTH2 receptor [6]): weak CRTH2 receptor antagonist
